# Source: US11873298B2, “Compounds and uses thereof” (JANSSEN PHARMACEUTICA NV, priority 2017, dated 2024)
# Biological target: T1, SCD5 (Homo sapiens, UniProt Q86SK9)
# T1 construct: host or cells: S. cerevisiae ole1Δ strain (W303 pdr1Δ pdr3Δ background), plasmid pRS316 with TDH3 promoter and CYC1 terminator
# T1 sequence (Q86SK9 1-330): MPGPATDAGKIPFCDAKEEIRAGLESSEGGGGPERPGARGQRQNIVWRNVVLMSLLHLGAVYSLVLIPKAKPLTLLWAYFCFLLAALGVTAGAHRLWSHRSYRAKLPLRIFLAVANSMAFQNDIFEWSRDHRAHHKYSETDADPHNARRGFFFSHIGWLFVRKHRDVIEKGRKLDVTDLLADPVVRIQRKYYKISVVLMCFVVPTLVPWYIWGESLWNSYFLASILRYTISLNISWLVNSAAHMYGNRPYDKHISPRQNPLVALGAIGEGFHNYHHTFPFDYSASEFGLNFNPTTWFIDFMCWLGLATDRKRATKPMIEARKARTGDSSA
# Test: Growth inhibition of humanized yeast strain expressing SCD5 as sole desaturase
# Assay type: cell-based
# Settings: humanized yeast strain expressing SCD5
# Protocol: Strain oleΔ (yeast ole1 deletion mutant) was constructed by deleting OLE1 with NAT-MX6 in BY4741, amplifying the deletion cassette from the genomic DNA of the resulting strain with primers flanking the ORF by 1000 bp upstream and downstream, transforming the resulting deletion cassette into W303 pdr1Δ pdr3Δ, and plating transformants on YPD media containing G418 (200 μg/mL) and nourseothricin ([…]) with 0.01% TWEEN®-20 and 0.5 mM oleic and palmitoleic acids.
# The coding sequence of yeast OLE1 was also cloned into this plasmid). These clones were then transformed into the ole1Δ strain and plated on CSM-Ura media (CSM lacking uracil) with 2% glucose (w/v) and independent colonies were isolated and amplified.
# All compound profiling experiments were performed using the same basic protocol. Different genetic backgrounds (e.g., gene deletions) or conditions (e.g., addition of oleic and palmitoleic acid) were replaced as indicated below.
# Yeast were cultured using standard techniques in complete synthetic media (CSM) and yeast nitrogen base supplemented with 2% (w/v) carbon source (glucose, raffinose, or galactose) to regulate the expression of the toxic disease protein. An initial starter culture was inoculated in 3 mL CSM-Glucose media and incubated overnight in a 30° C. shaker incubator (225 rpm). Saturated morning cultures were then diluted 1:20 in fresh CSM-Raffinose media and grown for 6 h to an OD600 (optical density) of ˜0.4-0.8 at 30° C. with shaking.
# Compound administration was performed in two separate steps. First, 15 μL of CSM-Galactose (induces expression of toxic protein) was dispensed into clear 384 well assay plates using a MULTIDROP™ Combi reagent dispenser. […] The cultures described above were then diluted to a 2× concentration (0.03 and 0.08 for alpha-synuclein and ApoE, final ODsoo of 0.015 and 0.04) in CSM-Galactose. For wild-type and Ole1/SCD1/SCD5 plasmid-containing strains, the 2× cell density was 0.02. […] For 96-well assays (FIGS. 1A and 1B), compound dilutions in DMSO were generated in 96 well plates and 1 μL was manually pipetted into 96 well clear bottom assay plates.
# For experiments using a plasmid-borne copy of Ole1, SCD1, or SCD5 (FIGS. 3B, 6, and 7), media lacking uracil (SX-Ura, where X is glucose, raffinose, or galactose), was used for all steps of the compound profiling protocol to ensure its maintenance throughout the assay.
# After yeast delivery, assay plates were incubated under humidified conditions at 30° C. for 24 to 40 h. ApoE4 rescue experiments were stopped at 24 h, aSyn experiments at 40 h, Ole1 at 24 h, and SCD1/SCD5 at 40 h. The growth of yeast was monitored by reading the ODsoo of each well using a microplate reader (Perkin Elmer EnVision™).
row,SMILES,IC50 [nM]
1,Cc1noc2cc(-c3noc(C4CCN(C(=O)CC5(C)CC5)CC4)n3)ccc12 [Compound 591],> 45000
2,Cc1nn(C)c2cc(-c3noc(C4CCN(C(=O)CC5COC5)CC4)n3)ccc12 [Compound 592],> 45000
3,CC(C)n1ncc2ccc(-c3noc(N4CCN(C(=O)OCC(F)(F)F)CC4)n3)cc21 [Compound 593],> 45000
4,CC(C)n1ncc2ccc(N3CC4(CCN(C(=O)OC5CC5)CC4)C3)cc21 [Compound 594],11800
5,COCC(=O)N1CCN(c2nc(-c3ccc4cnn(C(C)C)c4c3)no2)CC1 [Compound 595],> 45000
6,CC(C)n1ncc2ccc(-c3noc([C@H]4CC[C@H](N)CC4)n3)cc21 [Compound 596],> 45000
7,C[C@@H](O)C(=O)N1CCC(c2nc(-c3ccc4cnn(C5COC5)c4c3)no2)CC1 [Compound 597],> 45000
8,O=C(NCC(=O)N1CCC(c2nc(-c3ccc4cnn(C5COC5)c4c3)no2)CC1)c1ccccc1 [Compound 598],> 45000
9,N#Cc1cccc(N2C[C@@H](C(=O)N3CCC(c4nc(-c5ccc6cnn(C7COC7)c6c5)no4)CC3)CC2=O)c1 [Compound 599],> 45000
10,N#Cc1cccc(N2C[C@H](C(=O)N3CCC(c4nc(-c5ccc6cnn(C7COC7)c6c5)no4)CC3)CC2=O)c1 [Compound 600],> 45000

# Same assay, conditions: yeast strain expressing human SCD5 as sole desaturase; Table 8
row,SMILES,IC50 [nM]
1,CC1(OC(=O)N2CCC(c3noc(-c4cccc(C5CCOC5)n4)n3)CC2)CC1 (stereo not shown) [Compound 1197],17900
2,CC1(OC(=O)N2CCC(c3noc(-c4cncc(N5CCC(F)(F)C5)c4)n3)CC2)CC1 [Compound 1198],1720
3,CC(C)C(=O)N1CCC(c2noc(-c3cncc(C4CCOC4)c3)n2)CC1 (stereo not shown) [Compound 1199],3780
4,CC(C)(C)OC(=O)N1CCC(c2noc(-c3ccnc(N4CCC(F)(F)C4)c3)n2)CC1 [Compound 1200],210
5,CC(C)(C)OC(=O)N1CCC(c2cc(-c3ccnc(C4CCOC4)n3)no2)CC1 (stereo not shown) [Compound 1202],7130
6,CC(C)C(=O)N1CCC(c2noc(-c3cc(C4CCOC4)ccn3)n2)CC1 (stereo not shown) [Compound 1204],2390
7,CC1(OC(=O)N2CCC(c3noc(-c4cc(C5CCOC5)ccn4)n3)CC2)CC1 (stereo not shown) [Compound 1205],330
8,CC1(OC(=O)N2CCC(c3noc(-c4cncc(C5CCOC5)c4)n3)CC2)CC1 (stereo not shown) [Compound 1206],320
9,CC(C)(C)OC(=O)N1CCC(c2noc(-c3ccnc(-c4cnoc4)c3)n2)CC1 [Compound 1213],60
10,CC(C)CC(=O)N1CCC(c2noc(-c3cnc4cnn(C5COC5)c4c3)n2)CC1 [Compound 1214],390
11,CCS(=O)(=O)N1CCC(c2noc(-c3ccc4cnn(C5COC5)c4c3)n2)CC1 [Compound 1216],330
12,CC(C)S(=O)(=O)N1CCC(c2noc(-c3ccc4cnn(C5COC5)c4c3)n2)CC1 [Compound 1218],160
13,CC1(OC(=O)N2CCC(c3noc(-c4ccnc(-c5cnoc5)c4)n3)CC2)CC1 [Compound 1220],100
14,CC(C)C(=O)N1CCC(c2noc(N3CCc4cnn(C5COC5)c4C3)n2)CC1 [Compound 1223],2300
15,CC1(OC(=O)N2CCC(c3noc(N4CCc5cnn(C6COC6)c5C4)n3)CC2)CC1 [Compound 1224],60
16,CC(C)(C)OC(=O)N1CCC(c2cc(-c3cnc4cnn(C5COC5)c4c3)on2)CC1 [Compound 1225],120
17,CC(C)C(=O)N1CCC(c2cc(-c3cc4c(cn3)cnn4C3COC3)on2)CC1 [Compound 1226],20
18,CCC(=O)N1CCC(c2cc(-c3cc4c(cn3)cnn4C3COC3)on2)CC1 [Compound 1227],960
19,CC(C)(C)OC(=O)N1CCN(c2cc(-c3ccc4cnn(C5COC5)c4n3)on2)CC1 [Compound 1228],1950
20,O=C(N1CCC(c2nc(-c3ccnc(C4CCOC4)c3)no2)CC1)C1(F)CC1 (stereo not shown) [Compound 1229],1510
21,COC(=O)N1CCC(c2nc(-c3ccnc(C4CCOC4)c3)no2)CC1 (stereo not shown) [Compound 1230],6880
22,CC(C)CC(=O)N1CCC(c2cc(-c3cnc4cnn(C5COC5)c4c3)on2)CC1 [Compound 1231],16400
23,O=C(C1CCC1)N1CCC(c2cc(-c3cnc4cnn(C5COC5)c4c3)on2)CC1 [Compound 1232],7840
24,CC(C)(C)OC(=O)N1CCC(c2noc(-c3cnnc(C4CCOC4)c3)n2)CC1 (stereo not shown) [Compound 1234],490
25,O=C(C1CC1)N1CCC(c2cc(-c3cc4c(cn3)cnn4C3COC3)on2)CC1 [Compound 1236],200
26,CC1(C(=O)N2CCC(c3cc(-c4cc5c(cn4)cnn5C4COC4)on3)CC2)CC1 [Compound 1237],70

row,SMILES,IC50 [nM]
1,COC(=O)N1CCN(c2cc(-c3ccc4cnn(C5COC5)c4n3)on2)CC1 [Compound 1238],24600
2,O=C(C1CCC1)N1CCC(c2noc(-c3ccnc([C@H]4CCOC4)c3)n2)CC1 [Compound 1240],200
3,O=C(C1CCC1)N1CCC(c2noc(-c3ccnc([C@@H]4CCOC4)c3)n2)CC1 [Compound 1242],380
4,COC(=O)C(O)Cn1ncc2ccc(-c3nc(C4CCN(C(=O)OC(C)(C)C)CC4)no3)cc21 (stereo not shown) [Compound 1244],760
5,CC(C)(C)OC(=O)N1CCC(c2noc(-c3ccnc(-c4cnco4)c3)n2)CC1 [Compound 1245],580
6,O=C(C1CCC1)N1CCC(c2noc(-c3ccnc(N4CCC(F)(F)C4)c3)n2)CC1 [Compound 1246],400
7,O=C(C1CC1)N1CCC(c2noc(-c3ccnc(N4CCC(F)(F)C4)c3)n2)CC1 [Compound 1247],1050
8,CCC(=O)N1CCC(c2noc(-c3ccnc(N4CCC(F)(F)C4)c3)n2)CC1 [Compound 1248],6930
9,CC(C)(C)OC(=O)N1CCC(c2noc(-c3ccc(OC4COC4)nc3)n2)CC1 [Compound 1249],4910
10,COC(=O)N1CCC(c2noc(-c3cnnc(C4CCOC4)c3)n2)CC1 (stereo not shown) [Compound 1250],10100
11,O=C(C1CC1)N1CCC(c2noc(-c3cnc4cnn(C5CCOC5)c4c3)n2)CC1 (stereo not shown) [Compound 1251],30
12,O=C(C1CC1)N1CCC(c2noc(-c3ccnc(O[C@@H]4CCOC4)c3)n2)CC1 [Compound 1255],1880
13,O=C(C1CCC1)N1CCC(c2noc(-c3ccc(F)c(N4CCOCC4)c3)n2)CC1 [Compound 1258],40
14,O=C(C1CC1)N1CCC(c2noc(-c3ccc(F)c(N4CCOCC4)c3)n2)CC1 [Compound 1259],40
15,COC(=O)N1CCC(c2noc(N3CCc4cnn(C(C)C)c4C3)n2)CC1 [Compound 1260],250
16,CC(C)(C)OC(=O)N1CCC(c2noc(-c3ccc(C4CCOC4)nc3)n2)CC1 (stereo not shown) [Compound 1262],14100
17,CC(C)C(=O)N1CCC(c2noc(-c3ccnc(-c4cnco4)c3)n2)CC1 [Compound 1264],3270
18,CC(C)(C)OC(=O)N1CCC(c2noc(-c3cc(C4CCOC4)ncc3F)n2)CC1 (stereo not shown) [Compound 1267],2650
19,CC1(OC(=O)N2CCC(c3noc(-c4ccc(C5CCOC5)nc4)n3)CC2)CC1 (stereo not shown) [Compound 1268],32600
20,O=C(C1CCC1)N1CCC(c2noc(-c3ccnc(O[C@@H]4CCOC4)c3)n2)CC1 [Compound 1269],590
21,CC1(C(=O)N2CCC(c3noc(-c4cncc(C5CCOC5)c4)n3)CC2)CCC1 (stereo not shown) [Compound 1270],400
22,Cn1cc2c(n1)CN(c1nc(C3CCN(C(=O)OC(C)(C)C)CC3)no1)CC2 [Compound 1272],7540
23,CC(C)(C)OC(=O)N1CCC(c2noc(-c3cc(N4CCOCC4)c(F)cn3)n2)CC1 [Compound 1273],20
24,COC(=O)N1CCC(c2noc(-c3cc(C4CCOC4)ncc3F)n2)CC1 (stereo not shown) [Compound 1274],190
25,O=C(N1CCC(c2noc(-c3cc(C4CCOC4)ncc3F)n2)CC1)C1(F)CCC1 (stereo not shown) [Compound 1275],20
